Reference: patent publication US12378224B2 (Dong-A Socio Holdings Co., Ltd., priority 2016, dated 2025)

biological target: human c-MER catalytic domain (Homo sapiens (Human), UniProt Q12866); assay: TR-FRET Kinase Activity Biochemical Assay (LanthaScreen); conditions: 10 uM ATP, 1 hour, kinase not given
Summary of the method: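 Activity was quantified as the ratio of 495 nm to 520 nm emission (excitation 340 nm) in a LanthaScreen TR-FRET format. The enzyme was the human c-MER catalytic domain, and the substrate was fluorescein-poly-GT. Detection used 2 nM Tb anti-phosphotyrosine antibody for 30 min after termination with 10 mM EDTA.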

Sequence of human c-MER catalytic domain (Q12866 587-858): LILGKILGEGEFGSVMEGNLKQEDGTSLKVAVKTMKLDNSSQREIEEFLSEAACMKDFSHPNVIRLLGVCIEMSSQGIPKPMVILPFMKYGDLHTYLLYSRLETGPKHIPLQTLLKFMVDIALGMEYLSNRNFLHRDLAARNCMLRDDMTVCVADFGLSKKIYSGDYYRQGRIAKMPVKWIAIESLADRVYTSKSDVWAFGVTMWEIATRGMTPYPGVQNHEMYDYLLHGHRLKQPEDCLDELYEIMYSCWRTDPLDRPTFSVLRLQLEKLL

Row | SMILES | IC50
1 | Cn1cc(-c2cnc(N)c(C(=O)N[C@@H]3CCN(C(=O)Oc4cccc(-c5cccc(CN6CCC[C@@H](N)C6)c5)c4)C3)c2)cn1 [Example 338, 3′-(((R)-3-aminopiperidin-1-yl)methyl)-[1,1′-biphenyl]-3-yl (R)-3-(2-amino-5-(1-methyl-1H-pyrazol-4-yl)nicotinamido)pyrrolidine-1-carboxylate] | 10 to 100 nM
2 | Cn1cc(-c2cnc(N)c(C(=O)N[C@@H]3CCN(C(=O)Oc4cccc(-c5cccc(CN6CCC[C@H](N)C6)c5)c4)C3)c2)cn1 [Example 339, 3′-(((S)-3-aminopiperidin-1-yl)methyl)-[1,1′-biphenyl]-3-yl (R)-3-(2-amino-5-(1-methyl-1H-pyrazol-4-yl)nicotinamido)pyrrolidine-1-carboxylate] | 100 to 1000 nM
3 | Cn1cc(-c2cnc(N)c(C(=O)N[C@@H]3CCN(C(=O)Oc4cccc(-c5cccc(CN6CCC(N)CC6)c5)c4)C3)c2)cn1 [Example 340, 3′-((4-aminopiperidin-1-yl)methyl)-[1,1′-biphenyl]-3-yl (R)-3-(2-amino-5-(1-methyl-1H-pyrazol-4-yl)nicotinamido)pyrrolidine-1-carboxylate] | 100 to 1000 nM
4 | Cn1cc(-c2cnc(N)c(C(=O)N[C@@H]3CCN(C(=O)Oc4cccc(-c5cccc(CN6CCCNCC6)c5)c4)C3)c2)cn1 [Example 341, 3′-((1,4-diazepan-1-yl)methyl)-[1,1′-biphenyl]-3-yl (R)-3-(2-amino-5-(1-methyl-1H-pyrazol-4-yl)nicotinamido)pyrrolidine-1-carboxylate] | 10 to 100 nM
5 | Cn1cc(-c2cnc(N)c(C(=O)NC3CN(C(=O)c4ccc(-c5ccccc5)cc4)C3)c2)cn1 [Example 344, N-(1-([1,1′-biphenyl]-4-carbonyl)azetidin-3-yl)-2-amino-5-(1-methyl-1H-pyrazol-4-yl)nicotinamide] | > 1000 nM
6 | Cn1cc(-c2cnc(N)c(C(=O)N[C@H]3CCN(C(=O)c4ccc(-c5ccccc5)cc4)C3)c2)cn1 [Example 346, (S)—N-(1-([1,1′-biphenyl]-4-carbonyl)pyrrolidin-3-yl)-2-amino-5-(1-methyl-1H-pyrazol-4-yl)nicotinamide] | > 1000 nM
7 | Cn1cc(-c2cnc(N)c(C(=O)N[C@@H]3CCCN(C(=O)c4ccc(-c5ccccc5)cc4)C3)c2)cn1 [Example 347, (R)—N-(1-([1,1′-biphenyl]-4-carbonyl)piperidin-3-yl)-2-amino-5-(1-methyl-1H-pyrazol-4-yl)nicotinamide] | > 1000 nM
8 | Cn1cc(-c2cnc(N)c(C(=O)N[C@H]3CCCN(C(=O)c4ccc(-c5ccccc5)cc4)C3)c2)cn1 [Example 348, (S)—N-(1-([1,1′-biphenyl]-4-carbonyl)piperidin-3-yl)-2-amino-5-(1-methyl-1H-pyrazol-4-yl)nicotinamide] | > 1000 nM
9 | Cn1cc(-c2cnc(N)c(C(=O)N[C@@H]3CCN(C(=O)c4ccc(-c5ccccc5C=O)cc4)C3)c2)cn1 [Example 355, (R)-2-amino-N-(1-(2′-formyl-[1,1′-biphenyl]-4-carbonyl)pyrrolidin-3-yl)-5-(1-methyl-1H-pyrazol-4-yl)nicotinamide] | 10 to 100 nM
10 | Cn1cc(-c2cnc(N)c(C(=O)N[C@@H]3CCN(C(=O)c4ccc(-c5cccnc5)cc4)C3)c2)cn1 [Example 356, (R)-2-amino-5-(1-methyl-1H-pyrazol-4-yl)-N-(1-(4-(pyridin-3-yl)benzoyl)pyrrolidin-3-yl)nicotinamide] | 100 to 1000 nM
11 | Cn1cc(-c2cnc(N)c(C(=O)N[C@@H]3CCN(C(=O)c4ccc(-c5c(F)cccc5F)cc4)C3)c2)cn1 [Example 364, (R)-2-amino-N-(1-(2′,6′-difluoro-[1,1′-biphenyl]-4-carbonyl)pyrrolidin-3-yl)-5-(1-methyl-1H-pyrazol-4-yl)nicotinamide] | 10 to 100 nM
12 | Cn1cc(-c2cnc(N)c(C(=O)N[C@@H]3CCN(C(=O)c4ccc(-c5ccc(C(F)(F)F)cc5C(F)(F)F)cc4)C3)c2)cn1 [Example 374, (R)-2-amino-N-(1-(2′,4′-bis(trifluoromethyl)-[1,1′-biphenyl]-4-carbonyl)pyrrolidin-3-yl)-5-(1-methyl-1H-pyrazol-4-yl)nicotinamide] | > 1000 nM
13 | CN(C)c1ccc(-c2ccc(C(=O)N3CC[C@@H](NC(=O)c4cc(-c5cnn(C)c5)cnc4N)C3)cc2)cc1 [Example 379, (R)-2-amino-N-(1-(4′-(dimethylamino)-[1,1′-biphenyl]-4-carbonyl)pyrrolidin-3-yl)-5-(1-methyl-1H-pyrazol-4-yl)nicotinamide] | 10 to 100 nM
14 | Cn1cc(-c2cnc(N)c(C(=O)N[C@@H]3CCN(C(=O)c4ccc(-c5cccc(C=O)c5)cc4)C3)c2)cn1 [Example 382, (R)-2-amino-N-(1-(3′-formyl-[1,1′-biphenyl]-4-carbonyl)pyrrolidin-3-yl)-5-(1-methyl-1H-pyrazol-4-yl)nicotinamide] | 10 to 100 nM
15 | Cn1cc(-c2cnc(N)c(C(=O)N[C@@H]3CCN(C(=O)c4ccc(-c5ccccc5)nc4)C3)c2)cn1 [Example 398, (R)-2-amino-5-(1-methyl-1H-pyrazol-4-yl)-N-(1-(6-phenylnicotinoyl)pyrrolidin-3-yl)nicotinamide] | 100 to 1000 nM
16 | Cc1csc(C(=O)N2CC[C@@H](NC(=O)c3cc(-c4cnn(C)c4)cnc3N)C2)c1 [Example 409, (R)-2-amino-5-(1-methyl-1H-pyrazol-4-yl)-N-(1-(4-methylthiophene-2-carbonyl)pyrrolidin-3-yl)nicotinamide] | > 1000 nM
17 | Cn1cc(-c2cnc(N)c(C(=O)N[C@@H]3CCN(C(=O)c4ccc(OC5C=CCCC5)cc4)C3)c2)cn1 (stereo partly drawn) [Example 411, 2-amino-N-((3R)-1-(4-(cyclohex-2-en-1-yloxy)benzoyl)pyrrolidin-3-yl)-5-(1-methyl-1H-pyrazol-4-yl)nicotinamide] | 100 to 1000 nM
18 | Cn1cc(-c2cnc(N)c(C(=O)N[C@@H]3CCN(C(=O)c4ccc(CCBr)cc4)C3)c2)cn1 [Example 413, (R)-2-amino-N-(1-(4-(2-bromoethyl)benzoyl)pyrrolidin-3-yl)-5-(1-methyl-1H-pyrazol-4-yl)nicotinamide] | > 1000 nM
19 | C=Cc1ccc(C(=O)N2CC[C@@H](NC(=O)c3cc(-c4cnn(C)c4)cnc3N)C2)cc1 [Example 417, (R)-2-amino-5-(1-methyl-1H-pyrazol-4-yl)-N-(1-(4-vinylbenzoyl)pyrrolidin-3-yl)nicotinamide] | 100 to 1000 nM
20 | Cn1cc(-c2cnc(N)c(C(=O)N[C@@H]3CCN(C(=O)Cc4cccc(Br)c4)C3)c2)cn1 [Example 421, (R)-2-amino-N-(1-(2-(3-bromophenyl)acetyl)pyrrolidin-3-yl)-5-(1-methyl-1H-pyrazol-4-yl)nicotinamide] | > 1000 nM
21 | Cn1cc(-c2cnc(N)c(C(=O)N[C@@H]3CCN(C(=O)Cc4cccc(-c5ccccc5)c4)C3)c2)cn1 [Example 423, (R)—N-(1-(2-([1,1′-biphenyl]-3-yl)acetyl)pyrrolidin-3-yl)-2-amino-5-(1-methyl-1H-pyrazol-4-yl)nicotinamide] | > 1000 nM
22 | CN1CCN(Cc2ccc(-c3cccc(/C=C/C(=O)N4CC[C@@H](NC(=O)c5cc(-c6cnn(C)c6)cnc5N)C4)c3)cc2)CC1 [Example 431, (R,E)-2-amino-5-(1-methyl-1H-pyrazol-4-yl)-N-(1-(3-(4′-((4-methylpiperazin-1-yl)methyl)-[1,1′-biphenyl]-3-yl)acryloyl)pyrrolidin-3-yl)nicotinamide] | 100 to 1000 nM
23 | CN1CCN(CCc2cccc(-c3cccc(C(=O)N4CC[C@@H](NC(=O)c5cc(-c6cnn(C)c6)cnc5N)C4)c3)c2)CC1 [Example 453, (R)-2-amino-5-(1-methyl-1H-pyrazol-4-yl)-N-(1-(3′-(2-(4-methylpiperazin-1-yl)ethyl)-[1,1′-biphenyl]-3-carbonyl)pyrrolidin-3-yl)nicotinamide] | > 1000 nM
24 | Cn1cc(-c2cnc(N)c(C(=O)N[C@@H]3CCN(C(=O)c4cccc(-c5cccc(N)c5)c4)C3)c2)cn1 [Example 457, (R)-2-amino-N-(1-(3′-amino-[1,1′-biphenyl]-3-carbonyl)pyrrolidin-3-yl)-5-(1-methyl-1H-pyrazol-4-yl)nicotinamide] | > 1000 nM
25 | Cn1cc(-c2cnc(N)c(C(=O)N[C@@H]3CCN(C(=O)c4cccc(-c5ccoc5)c4)C3)c2)cn1 [Example 468, (R)-2-amino-N-(1-(3-(furan-3-yl)benzoyl)pyrrolidin-3-yl)-5-(1-methyl-1H-pyrazol-4-yl)nicotinamide] | > 1000 nM
26 | Cn1cc(-c2cnc(N)c(C(=O)N[C@@H]3CCN(C(=O)c4cccc(C5=CCCCC5)c4)C3)c2)cn1 [Example 475, (R)-2-amino-5-(1-methyl-1H-pyrazol-4-yl)-N-(1-(2′,3′,4′,5′-tetrahydro-[1,1′-biphenyl]-3-carbonyl)pyrrolidin-3-yl)nicotinamide] | > 1000 nM
27 | Cn1cc(-c2cnc(N)c(C(=O)N[C@@H]3CCN(C(=O)c4cccc(-c5cccc(N6CCCCC6)c5)c4)C3)c2)cn1 [Example 477, (R)-2-amino-5-(1-methyl-1H-pyrazol-4-yl)-N-(1-(3′-(piperidin-1-yl)-[1,1′-biphenyl]-3-carbonyl)pyrrolidin-3-yl)nicotinamide] | > 1000 nM
28 | Cn1cc(-c2cnc(N)c(C(=O)N[C@@H]3CCN(C(=O)c4cc(-c5ccccc5)ccc4N)C3)c2)cn1 [Example 486, (R)-2-amino-N-(1-(4-amino-[1,1′-biphenyl]-3-carbonyl)pyrrolidin-3-yl)-5-(1-methyl-1H-pyrazol-4-yl)nicotinamide] | 100 to 1000 nM
29 | Cn1cc(-c2cnc(N)c(C(=O)N[C@@H]3CCN(C(=O)c4ccc(-c5ccoc5)cc4)C3)c2)cn1 [Example 487, (R)-2-amino-N-(1-(4-(furan-3-yl)benzoyl)pyrrolidin-3-yl)-5-(1-methyl-1H-pyrazol-4-yl)nicotinamide] | 100 to 1000 nM
30 | Cn1cc(-c2cnc(N)c(C(=O)N[C@@H]3CCN(C(=O)c4ccc(-c5ccncc5)cc4)C3)c2)cn1 [Example 489, (R)-2-amino-5-(1-methyl-1H-pyrazol-4-yl)-N-(1-(4-(pyridin-4-yl)benzoyl)pyrrolidin-3-yl)nicotinamide] | 100 to 1000 nM
